Patent US10758534B2 (Vertex Pharmaceuticals Incorporated, priority 2014, dated 2020)

The compounds below were run against T1, F508del (Homo sapiens, UniProt P13569, DEL508-508) (assay: Protocol 1: membrane potential optical assay (FLIPR III, voltage sensing dye), identification of potentiator compounds). Conditions: Table 3, compounds of Table 1.
T1 construct: expressed in transfected cells
Assay type: cell-based
In short: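 NIH3T3 F508del cells, 27° C × 24 hrs; compound/DMSO pretreat → redistribution dye load → single forskolin addition with Cl⁻ gradient (gluconate-substituted bath, HEPES pH 7.4). FLIPR III membrane-potential fluorescence read.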

T1 sequence (P13569 with tags, fused parts or gaps DEL508-508): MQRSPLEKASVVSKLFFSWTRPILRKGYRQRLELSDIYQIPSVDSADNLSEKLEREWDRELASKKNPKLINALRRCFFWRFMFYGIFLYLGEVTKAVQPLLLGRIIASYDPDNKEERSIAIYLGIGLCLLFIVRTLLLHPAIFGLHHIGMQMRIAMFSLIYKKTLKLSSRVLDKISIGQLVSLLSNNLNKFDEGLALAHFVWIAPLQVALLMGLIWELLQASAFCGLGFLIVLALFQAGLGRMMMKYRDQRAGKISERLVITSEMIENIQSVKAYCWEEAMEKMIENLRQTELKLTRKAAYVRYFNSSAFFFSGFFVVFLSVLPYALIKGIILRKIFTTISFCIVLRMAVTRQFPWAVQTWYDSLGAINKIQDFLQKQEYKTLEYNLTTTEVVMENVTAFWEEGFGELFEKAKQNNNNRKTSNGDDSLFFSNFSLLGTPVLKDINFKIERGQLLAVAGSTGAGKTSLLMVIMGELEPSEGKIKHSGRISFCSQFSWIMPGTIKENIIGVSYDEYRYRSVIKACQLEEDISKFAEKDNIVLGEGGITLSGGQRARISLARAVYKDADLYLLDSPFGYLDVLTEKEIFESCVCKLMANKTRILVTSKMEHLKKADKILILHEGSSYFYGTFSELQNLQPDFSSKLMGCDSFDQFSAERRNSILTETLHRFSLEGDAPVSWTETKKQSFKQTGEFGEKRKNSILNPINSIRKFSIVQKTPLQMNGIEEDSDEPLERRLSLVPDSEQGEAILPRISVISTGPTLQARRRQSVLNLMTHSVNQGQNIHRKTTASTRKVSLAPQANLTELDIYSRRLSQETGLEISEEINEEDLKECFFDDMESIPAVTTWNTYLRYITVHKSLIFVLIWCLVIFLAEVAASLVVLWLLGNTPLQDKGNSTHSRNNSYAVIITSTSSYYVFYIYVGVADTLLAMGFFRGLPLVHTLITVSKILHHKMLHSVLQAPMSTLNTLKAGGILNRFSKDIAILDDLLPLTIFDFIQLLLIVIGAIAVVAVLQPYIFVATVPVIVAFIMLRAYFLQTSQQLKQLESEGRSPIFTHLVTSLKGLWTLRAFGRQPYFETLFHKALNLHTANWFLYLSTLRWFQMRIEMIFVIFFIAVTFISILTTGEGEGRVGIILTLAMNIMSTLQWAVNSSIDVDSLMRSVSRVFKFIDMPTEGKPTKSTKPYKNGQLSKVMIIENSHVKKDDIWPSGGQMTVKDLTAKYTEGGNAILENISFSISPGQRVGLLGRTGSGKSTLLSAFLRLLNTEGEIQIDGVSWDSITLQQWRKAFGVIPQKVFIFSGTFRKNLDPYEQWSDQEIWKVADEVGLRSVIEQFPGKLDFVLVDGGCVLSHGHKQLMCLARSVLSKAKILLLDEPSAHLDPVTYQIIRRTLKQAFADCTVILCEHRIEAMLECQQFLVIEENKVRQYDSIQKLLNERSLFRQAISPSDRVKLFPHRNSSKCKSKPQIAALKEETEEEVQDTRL

| Compound | EC30 |
| --- | --- |
| CC(C)COc1cc(F)cc(-c2ccc(C(=O)NS(=O)(=O)c3ccn[nH]3)c(N3CCCC3(C)C)n2)c1 [Compound 1302, 2-(2,2-dimethylpyrrolidin-1-yl)-6-(3-fluoro-5-isobutoxy-phenyl)-N-(1H-pyrazol-5-ylsulfonyl)pyridine-3-carboxamide] | ++ (“++” means between 3 uM and 10 uM) |
| CC(C)COc1cc(F)cc(-c2ccc(C(=O)NS(=O)(=O)c3cccc(N)n3)c(N3CCC4(CCC4)CC3)n2)c1 [Compound 1303, N-[(6-amino-2-pyridyl)sulfonyl]-2-(7-azaspiro[3.5]nonan-7-yl)-6-(3-fluoro-5-isobutoxy-phenyl)pyridine-3-carboxamide] | +++ (“+++” means <3 uM) |
| CC(C)COc1cc(F)cc(-c2ccc(C(=O)NS(=O)(=O)c3cccc(N)n3)c(N3CCC[C@H]3C(F)(F)F)n2)c1 [Compound 1304, N-[(6-amino-2-pyridyl)sulfonyl]-6-(3-fluoro-5-isobutoxy-phenyl)-2-[(2S)-2-(trifluoromethyl)pyrrolidin-1-yl]pyridine-3-carboxamide] | +++ (“+++” means <3 uM) |
| COc1c(C(C)(C)C)nn(Cc2c(C)cc(C)cc2C)c1C(=O)NS(=O)(=O)c1cccc(N)c1 [Compound 1305, N-(3-aminophenyl)sulfonyl-5-tert-butyl-4-methoxy-2-[(2,4,6-trimethylphenyl)methyl]pyrazole-3-carboxamide] | +++ (“+++” means <3 uM) |
| Cc1cc(C)c(Oc2nc(N(C)C)ccc2C(=O)NS(=O)(=O)c2cccc(N)n2)c(C)c1 [Compound 1306, N-[(6-amino-2-pyridyl)sulfonyl]-6-(dimethylamino)-2-(2,4,6-trimethylphenoxy)pyridine-3-carboxamide] | +++ (“+++” means <3 uM) |
| Cc1ccc(-c2nc3c(cc2C(=O)NS(=O)(=O)c2ccc(N)cc2)CCCC3(C)C)cc1 [Compound 1307, N-(4-aminophenyl)sulfonyl-8,8-dimethyl-2-(p-tolyl)-6,7-dihydro-5H-quinoline-3-carboxamide] | ++ (“++” means between 3 uM and 10 uM) |
| CC(C)COc1cc(F)cc(-c2ccc(C(=O)NS(=O)(=O)c3cccc(=O)[nH]3)c(N3CC(C)CC3(C)C)n2)c1 (stereo not drawn) [Compound 1308, 6-(3-fluoro-5-isobutoxy-phenyl)-N-[(6-oxo-1H-pyridin-2-yl)sulfonyl]-2-(2,2,4-trimethylpyrrolidin-1-yl)pyridine-3-carboxamide] | +++ (“+++” means <3 uM) |
| CC(C)COc1cc(F)cc(-c2ccc(C(=O)NS(=O)(=O)c3cccc(O)c3)c(N3CCC(C)(C)CC3)n2)c1 [Compound 1309, 2-(4,4-dimethyl-1-piperidyl)-6-(3-fluoro-5-isobutoxy-phenyl)-N-(3-hydroxyphenyl)sulfonyl-pyridine-3-carboxamide] | +++ (“+++” means <3 uM) |
| Cc1cc(C)c(Oc2nc(C3(C)CC3)ccc2C(=O)NS(=O)(=O)c2cccc(N)n2)c(C)c1 [Compound 1310, N-[(6-amino-2-pyridyl)sulfonyl]-6-(1-methylcyclopropyl)-2-(2,4,6-trimethylphenoxy)pyridine-3-carboxamide] | +++ (“+++” means <3 uM) |
| Cc1cc(C)c(Oc2nc(C(C)(C)C)ccc2C(=O)NS(=O)(=O)c2c(C)cc[nH]c2=O)c(C)c1 [Compound 1311, 6-tert-butyl-N-[(4-methyl-2-oxo-1H-pyridin-3-yl)sulfonyl]-2-(2,4,6-trimethylphenoxy)pyridine-3-carboxamide] | +++ (“+++” means <3 uM) |
| CCn1cc(-c2ccc(C(=O)NS(=O)(=O)c3cccc(N)n3)c(Oc3c(C)cc(C)cc3C)n2)cn1 [Compound 1312, N-[(6-amino-2-pyridyl)sulfonyl]-6-(1-ethylpyrazol-4-yl)-2-(2,4,6-trimethylphenoxy)pyridine-3-carboxamide] | ++ (“++” means between 3 uM and 10 uM) |
| CC(C)COc1cc(F)cc(-c2ccc(C(=O)NS(=O)(=O)c3cccc(N)n3)c(N3CCCC4CCCC43)n2)c1 (stereo not drawn) [Compound 1313, 2-(2,3,4,4a,5,6,7,7a-octahydrocyclopenta[b]pyridin-1-yl)-N-[(6-amino-2-pyridyl)sulfonyl]-6-(3-fluoro-5-isobutoxy-phenyl)pyridine-3-carboxamide] | +++ (“+++” means <3 uM) |
